The results in this text go back to patent publication US20060040390A1, “Device, method, system, and program for intelligent in vivo cell-level chemical or genetic material delivery” (priority 2004, published 2006).

The test system of data set [1] is B104 cells. Briefly: In vitro survival assay with caspase inhibitor, B104 cells that do not express TrkA. The settings on record: B104 cells (no TrkA), serum free media. The format is cell-based, rat. On the procedure: (§1) 4-3.6 cells are placed in serum free media (SFM, PFHM-II, GIBCO, Toronto), where they undergo apoptosis (serum-withdrawal model).
Cells are then cultured for ~48 hrs. Cell growth/survival is calculated relative to 5% serum (standardized to 100%). Addition of serum protects cells in SFM from death.
Cell survival is measured by quantitative tetrazolium salt reagent (MTT, Sigma) and optical density (OD) readings as described [Maliartchouk, 1997]. n=3-6.
Testing 4-3.6 Cell Survival (MTT, % of serum control). Serum free media 0.+−. 4 5%. Serum 100.+−. 2 20 nM zVAD−2.+−. 3 VAD-5C3 conjugate (20 nM VAD equivalent, 1 nM 41.+−. 1 5C3). […] Typicaly, […] mAb 5C3 alone (unconjugated) does protect 4-3.6 cells in SFM to ~10%, which is a much lower degree of protection than equimolar doses of the VAD-5C3 conjugate.

The next data set deals with 4-3.6 cells. Put plainly: In vitro survival assay with caspase inhibitor, serum-withdrawal model, 4-3.6 cells. In kind it is cell-based, rat. The settings on record: ~48 hrs.
Description: as §1

For data set [2], the system named is mouse fibroblasts stably transfected with IGF-R. The settings on record: 72 h.
Another data set deals with KB-V cells. Briefly: cells.
In data set [3] the test system is neuroblastoma (B104 cells) xenografted in nude mice. Briefly: In vivo tumor study, B104 neuroblastoma xenografted in nude mice. The text has this:
Nude mice (seven weeks old, female) are used to test the effect of paclitaxel in tumor progression. […] Tumor growth is monitored daily. Mice are then randomized and treatments are initiated. […] Measurements of tumor volume are taken using calipers, every day post treatment for a total of 25 days.

The test system of data set [4] is B104 cells. On the procedure: The B104 cells are a rat neuroblastoma line that expresses p75 receptors (p75^+). The 4-3.6 cells are B104 cells stably transfected with human TrkA cDNA (p75^+, TrkA^+).
Therefore, tested is whether a single bolus of paclitaxel is an effective cytotoxic agent. Cells ae exposed to the indicated concentration of paclitaxel for 30 minutes at 4° C. Then, cells are plated in a 96-well plate (Falcon); this group represents treatment with paclitaxel present in a constant manner. The remaining cells are washed free of excess paclitaxel prior to plating; this group represents a single exposure to paclitaxel. […] Optical density readings of MTT are done in an EIA Plate Reader model 2550 (Bio-Rad) at 595 nm.
Paclitaxel is lipophilic and readily penetrates the cell membrane. […] Tested is whether a single short term exposure to paclitaxel can be effective in killing neuroblastoma B104 cells. These assays are done at 4°
The mAbs purpose is purely for target binding.

Data set [5] deals with cells that do not express p75. Put plainly: Selectivity of paclitaxel-MC192 on cells that do not express p75. The format is cell-based.

For the compound “benzoic acid-Valine-Alanine-Aspartic acid-O-methyl-fluoromethyl-Iketone peptide [zVAD]”, the “protection of B104 cells from death” value with B104 cells [1] is “Neither 20 nM zVAD nor VAD-5c3 conjugate afford protection”. The “protection of cells in SFM” value in the data set on 4-3.6 cells is reported as “does not protect cells”.

In the case of `COc1cccc2c1C(=O)c1c(O)c3c(c(O)c1C2=O)C[C@@](O)(C(=O)CO)C[C@@H]3O[C@H]1C[C@H](N)[C@H](O)[C@H](C)O1` [Doxorubicin], in data set [2], the “cytotoxicity with or without excess antibody” value is “the same cytotoxicity whether excess of mig or α-IR3 is present or not”. The “cytotoxicity on multidrug resistant KB-V cells compared to sensitive KB cells” value with KB-V cells was “inactive on KB-V cells unless Verapamil was added”. Also, the IC50 with KB-V cells (Homo sapiens, KBV, 72 h, read-out: IC50 ± SEM) was greater than 320 nM.

Turning to `CC(=O)O[C@H]1C(=O)[C@@]2(C)[C@H]([C@H](OC(=O)c3ccccc3)[C@]3(O)C[C@H](OC(=O)[C@H](O)[C@@H](NC(=O)c4ccccc4)c4ccccc4)C(C)=C1C3(C)C)[C@]1(OC(C)=O)CO[C@@H]1C[C@@H]2O` [paclitaxel], in data set [3] (nude mice, five IP injections every two days, versus control (HBSS)), the “antitumor activity, tumor growth” value was “not able to do so”. In addition, the “efficacy of free drug at the conjugate's effective dose” value in data set [3] (~3.5 nM) is listed as “not effective at this dose”. The “cytotoxic effect, single exposure versus constant presence” value in the data set on B104 cells [4] is given as “generally the same whether the drug is present in the culture throughout or after a single exposure”. The “cytotoxicity, constant versus single dose” value in the data set on B104 cells [4] (rat, 48 h) was “the same after 48 hours whether a constant or a single dose is given”. Moreover, in data set [5], the “cytotoxicity on cells that do not express p75” value is recorded as “dose-dependent cytotoxicity”.
